From US12358896B2, “LRRK2 inhibitors and methods of making and using thereof” (DENALI THERAPEUTICS INC., priority 2019, dated 2025)

Experiments:
[1] = target: T1, FLAG-tagged human LRRK2 with G2019S mutation (Homo sapiens, UniProt Q5S007, G2019S); experiment: Inhibition of pSer935 in HEK293 cells with expressed G2019S LRRK2 (Biological Example 4); format: cell-based; conditions: transfected 293T cells, 90 minutes compound treatment, MSD readout; read-out: HEK293T LRRK2 G2019S pS935
T1 construct: expressed in transfected cells; host or cells: HEK293 / 293T cells, transient transfection with pCMV-FLAG-G2019S
T1 sequence (Q5S007 whole entry G2019S): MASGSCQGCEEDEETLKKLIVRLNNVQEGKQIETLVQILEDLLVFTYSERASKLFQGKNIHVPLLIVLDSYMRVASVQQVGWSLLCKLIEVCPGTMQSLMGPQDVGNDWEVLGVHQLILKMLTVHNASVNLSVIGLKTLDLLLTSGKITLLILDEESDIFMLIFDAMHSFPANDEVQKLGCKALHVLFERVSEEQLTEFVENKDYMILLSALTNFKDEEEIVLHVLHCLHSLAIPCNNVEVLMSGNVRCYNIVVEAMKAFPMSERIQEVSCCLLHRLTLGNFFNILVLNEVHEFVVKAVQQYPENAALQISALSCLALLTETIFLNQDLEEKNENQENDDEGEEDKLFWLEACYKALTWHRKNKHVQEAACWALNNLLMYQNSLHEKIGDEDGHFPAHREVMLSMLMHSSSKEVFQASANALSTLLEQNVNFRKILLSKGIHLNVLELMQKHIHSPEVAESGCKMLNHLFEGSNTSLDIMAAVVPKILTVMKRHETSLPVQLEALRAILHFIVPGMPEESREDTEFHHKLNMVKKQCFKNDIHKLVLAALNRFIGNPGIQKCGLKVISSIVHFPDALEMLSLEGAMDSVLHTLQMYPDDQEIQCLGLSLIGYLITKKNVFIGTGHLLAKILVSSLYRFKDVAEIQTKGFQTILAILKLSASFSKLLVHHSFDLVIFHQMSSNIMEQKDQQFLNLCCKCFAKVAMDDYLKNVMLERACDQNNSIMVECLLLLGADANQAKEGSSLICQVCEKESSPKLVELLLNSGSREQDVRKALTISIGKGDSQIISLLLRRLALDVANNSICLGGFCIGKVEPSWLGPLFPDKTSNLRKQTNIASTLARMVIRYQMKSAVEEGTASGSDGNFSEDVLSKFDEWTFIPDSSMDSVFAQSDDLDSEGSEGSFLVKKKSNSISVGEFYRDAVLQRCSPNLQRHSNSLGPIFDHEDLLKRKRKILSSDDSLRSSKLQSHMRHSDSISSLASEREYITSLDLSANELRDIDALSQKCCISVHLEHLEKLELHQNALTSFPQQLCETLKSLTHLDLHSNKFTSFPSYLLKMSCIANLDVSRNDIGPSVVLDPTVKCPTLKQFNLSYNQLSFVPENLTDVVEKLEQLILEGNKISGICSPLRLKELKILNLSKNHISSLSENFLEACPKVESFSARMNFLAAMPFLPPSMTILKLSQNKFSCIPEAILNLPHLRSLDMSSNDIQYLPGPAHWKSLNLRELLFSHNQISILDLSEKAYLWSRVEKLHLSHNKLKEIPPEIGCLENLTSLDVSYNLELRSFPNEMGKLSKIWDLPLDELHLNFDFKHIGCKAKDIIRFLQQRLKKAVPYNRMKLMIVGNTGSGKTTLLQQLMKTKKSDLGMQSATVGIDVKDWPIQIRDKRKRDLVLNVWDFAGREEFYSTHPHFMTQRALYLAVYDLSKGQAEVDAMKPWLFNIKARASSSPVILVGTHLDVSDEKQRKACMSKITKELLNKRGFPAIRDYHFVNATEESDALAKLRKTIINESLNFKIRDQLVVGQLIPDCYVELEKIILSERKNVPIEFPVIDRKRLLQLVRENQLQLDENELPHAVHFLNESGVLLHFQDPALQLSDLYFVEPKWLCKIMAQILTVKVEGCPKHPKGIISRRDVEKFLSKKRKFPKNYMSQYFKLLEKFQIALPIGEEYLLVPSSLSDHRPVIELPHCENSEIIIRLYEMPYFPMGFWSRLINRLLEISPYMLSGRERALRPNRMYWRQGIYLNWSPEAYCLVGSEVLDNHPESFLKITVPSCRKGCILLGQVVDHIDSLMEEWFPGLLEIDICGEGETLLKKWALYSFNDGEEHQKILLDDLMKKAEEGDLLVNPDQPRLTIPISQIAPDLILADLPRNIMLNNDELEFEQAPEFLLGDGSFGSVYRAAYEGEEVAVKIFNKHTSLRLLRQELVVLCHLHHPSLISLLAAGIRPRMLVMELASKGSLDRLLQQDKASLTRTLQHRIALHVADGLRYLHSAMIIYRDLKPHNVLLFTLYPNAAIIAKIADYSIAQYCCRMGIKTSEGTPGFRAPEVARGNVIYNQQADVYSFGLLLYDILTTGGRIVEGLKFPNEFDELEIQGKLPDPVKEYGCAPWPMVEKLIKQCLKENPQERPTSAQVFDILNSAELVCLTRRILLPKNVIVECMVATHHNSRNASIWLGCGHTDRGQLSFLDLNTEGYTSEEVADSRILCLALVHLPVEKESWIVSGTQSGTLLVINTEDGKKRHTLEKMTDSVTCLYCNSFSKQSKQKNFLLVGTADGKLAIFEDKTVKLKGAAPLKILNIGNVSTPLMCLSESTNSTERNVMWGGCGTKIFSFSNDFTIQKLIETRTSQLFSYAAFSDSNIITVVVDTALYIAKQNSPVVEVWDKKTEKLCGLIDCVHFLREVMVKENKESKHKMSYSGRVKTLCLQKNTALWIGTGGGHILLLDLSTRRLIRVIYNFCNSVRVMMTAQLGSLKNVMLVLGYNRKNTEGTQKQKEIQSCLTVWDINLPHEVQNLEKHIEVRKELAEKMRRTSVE
Method: In this assay, inhibition of phosphorylation of LRRK2 at residue serine 935 (pS935) by test compound was determined in HEK293 cells.
HEK293 cells were first transiently transfected with a plasmid harboring FLAG-tagged human LRRK2 cDNA with G2019S mutation (p.G2019S) under the control of CMV promoter for robust overexpression. The levels of phosphorylated Ser935 in G2019S expressing cells with or without compound treatment were measured by MSD using an anti-FLAG capture antibody and a phosho-specific anti-LRRK2 pS935 monoclonal detection antibody. The IC50 was determined by fitting a 10-point dose response data in duplicate with four parameter non-linear regression curve.
(Day 1) 293T cell seeding: 293T cells were seeded (1.4×10^6/well) into each well of a 6-well plate. After two days in culture, the cell number can grow into 5×10^6/well, so N+1 wells were seeded (enough for N 96 well assay plates).
(Day 2) 293T cell transfection: 5 μL of pCMV-FLAG-G2019S or pCMV-FLAG-WT LRRK2 (0.5 μg/μL) was added into 145 μL of DMEM medium, and mixed thoroughly by pipette up and down several times. 15 μL of SuperFect Transfection Reagent was added into samples, mixed thoroughly by pipetting up and down several times, and allowed to equilibrate at room temperature for 5-10 minutes. 0.5 mL of pre-warmed cell culture medium was added into samples, and mixed thoroughly by pipetting up and down several times. 650 μL of the mixture was added dropwise into each well of the 6 well plate, the plate was swirled to mix thoroughly, and incubated in a 37° C. incubator with a humidified atmosphere of 5% CO2 for 20-24 hours.
(Day 3) 293T cells seed into 96 well plates: Cells were harvested and resuspended in cell culture medium at 0.96×10^6 cells/mL density. 50 μL/well cells were plated onto 96-well cell culture plate (48,000 cells/well), and the plates were incubated in a 37° C. incubator with a humidified atmosphere of 5% CO2 for 20-24 hours.
(Day 4) Inhibitor Treatment and Cell Lysis: The compound destination plates were thawed at room temperature and centrifuged at 2000 rpm. 55 μL cell culture medium was added into compound destination plate, and the plate was warmed at 37° C.
50 μL of cell culture medium containing compounds was transferred into cell culture plate. Plates were incubated in a 37° C. incubator with a humidified atmosphere of 5% CO2 for 90 minutes, after which all of compound-containing medium was completely aspirated manually with 300 μL pipette. 100 μL/well of Lysis Buffer was added and the plates sealed, shaken at 4° C. for 30 minutes, and stored at −20° C. until usage.
(Day 5) MSD procedure: 2 μg/25 μL/well of FLAG antibody diluted in PBS was added into the MSD plate, incubated for two hours at room temperature or overnight at 4° C. (in Day 4). 50 μL (3.9 μg/μL) of FLAG antibody plus 2.5 mL PBS, per 96 well plate, or 50 μL (3.9 μg/μL) anti-FLAG antibody plus 5 mL PBS per 384 well plate. The plates were centrifuged at 1000 rpm for 10 seconds and shaken with a plate shaker for 10 seconds.
Anti-FLAG antibody was discarded, and the wells were washed using multidrop, low speed, two times with 300 μL/well of wash buffer for a 96 well plate or three times with 70 μL/well of wash buffer for a 384 well plate. 50 μL/well of block buffer for a 96 well plate, or 25 μL/well of block buffer for a 384 well plate, was added and the plates were incubated for two hours at room temperature. The Block buffer was then discarded and the wells washed two times using multidrop, low speed, with 300 μL/well of wash buffer for a 96 well plate, or three times with 70 μL/well of wash buffer for a 384 well plate.
25 μL of cell lysate was transferred into a 96 well MSD plate, or 12.5 μL of cell lysate into 384 well MSD plate, and the plates were incubated for one hour at room temperature.
Note: The cell lysate should be thawed one hour prior to this step, the plate centrifuged at 1000 rpm for one minute, shaken for 30 seconds, and then unsealed for lysate transfer. […]

LRRK2 G2019S enzyme = LRRK2 G2019S enzyme (Homo sapiens, UniProt Q5S007, G2019S); experiment: LRRK2 G2019S TR-FRET biochemical assay (Biological Example 1); conditions: 134 μM ATP, 5 nM LRRK2, LRRKtide substrate
Sequence of LRRK2 G2019S enzyme (Q5S007 whole entry G2019S): as above
Method: • LRRK2 G2019S enzyme • Substrate (LRRKtide) • ATP • TR-FRET dilution buffer • pLRRKtide antibody • 384-well assay plate • DMSO Enzyme Reaction Conditions • 50 mM Tris pH 7.5, 10 mM MgCl2, 1 mM EGTA, 0.01% Brij-35, 2 mM DTT • 5 nM LRRK2 • 134 μM ATP • 60 minute reaction time • 23° C. reaction temperature • 10 μL total reaction volume Detection Reaction Conditions • 1×TR-FRET dilution buffer • 10 mM EDTA • 2 nM antibody • 23° C. reaction temperature • 10 μL total reaction volume
Compounds are prepared by initially diluting to 1 mM with DMSO. 35 μL of reference compound solution, 35 μL of test compound solution, and 35 μL HPE are successively added to the source plate (384-well assay plate, Labcyte). The plates are centrifuged at 2500 rpm for 1 minute and sealed in foil. POD is used to perform a 3.162 fold serial dilution and 100 nL of reference compound solution, test compound solution, HPE and ZPE are transferred to assay plates. The assay plate is centrifuged at 2500 rpm for 1 minute, and sealed with foil.
To perform the enzyme reaction, 5 μL of LRRKtide substrate and kinase mixture in assay buffer is added to all wells of the assay plate. The plate is centrifuged to concentrate the mixture at the bottom of the wells. The assay plate is incubated at 23° C. for 20 minutes. Following incubation, 5 μL of 2×ATP in assay buffer is added to each well, and plates are centrifuged to concentrate the mixture at the bottom of the wells. The plate is incubated at 23° C. for 60 minutes.
To perform the detection of the reaction, EDTA completely mixed in TR-FRET dilution buffer is added to antibody reagent. 10 μL of detection reagent is added to all wells of each well of the assay plate and the plate is centrifuged to concentrate the mixture at the bottom of the wells. The plate is then incubated at 23° C. for 60 minutes. Plates are read on Perkin Elmer Envision 2104 instrument in TR-FRET mode using a 340 nm excitation filter, 520 nm fluorescence emission filter, and 490 or 495 nm terbium emission filter.

SMILES	IC50 [1] [nM]	IC50 (LRRK2 G2019S enzyme) [nM]
CCNc1nc(Nc2cn([C@H]3C[C@H]3C(N)=O)nc2C2CC2)ncc1C(F)(F)F (single isomer, unassigned) [Example 7, (1,2-cis)-2-(3-cyclopropyl-4-((4-(ethylamino)-5-(trifluoromethyl)pyrimidin-2-yl)amino)-1H-pyrazol-1-yl)cyclopropanecarboxamide]	1.83	1.47
CCNc1nc(Nc2cc([C@H]3C[C@H]3C(N)=O)nn2C2CC2)ncc1C(F)(F)F [Comparative Example A, reference compound]	11.8	1.41
